Assay results reported in patent US9006285B2, “Therapeutic agent for hepatitis C” (Mochida Pharmaceutical Co., Ltd., priority 2008, dated 2015).

Legend:
[1] = tested on: HCV replication in OR6 cells; settings: cited from earlier work
hepatitis C virus (HCV) [2] = test: EPA-E before and during interferon therapy in hepatitis C with or without hepatic steatosis (Example 2-2); assay type: in vivo, human; settings: 1800 to 2700 mg/day oral at least one month before and during interferon therapy
Experimental: The patients to be tested are divided into two groups, EPA-E administered group and EPA-E non-administered group. In addition, a fatty liver group and a non-fatty liver group are set up in each of the EPA-E administered group and the EPA-E non-administered group by investigating the degree of hepatic fatty change through diagnostic imaging or hepatobiopsy. To the EPA-E administered group, 1800 to 2700 mg/day of EPA-E is orally administered for at least one month before interferon therapy. To the EPA-E non-administered group, none of EPA and derivatives thereof is administered during the testing period. Subsequently, interferon therapy is conducted on each group for three months or longer. The dose, dosage interval, dosage period, and the like of interferon are specified as appropriate to the condition of a patient, side effects of the interferon, and so forth. After the termination of interferon administration, the alanine aminotransferase (ALT) activity and the HCV-RNA level are measured (the latter by a COBAS AMPLICOR MONITOR assay), and a hepatohistological test is conducted. It should be noted that EPA-E is also administered to the EPA-E group during the administration of interferon.

[3] = tested on: HCV replication in Ava5 cells; settings: cited from earlier work
[4] = in vivo; cited from earlier work
[5] = tested on: blood HCV-RNA level (hepatitis C virus); test: Interferon therapy (interferon and ribavirin) with or without EPA-E in hepatitis C patients, by blood triglyceride level (Example 3); assay type: in vivo, human; settings: hepatitis C complicated with hypertriglyceridemia; interferon therapy along with oral 1800 to 2700 mg/day EPA-E
Description: The determination of the response rate to interferon therapy needs a follow-up survey for six months or longer after the completion of the therapy, that is to say, is time-consuming. The response rate can be determined earlier by using a leading index as a surrogate. For instance, the response rate to interferon therapy is expected to be increased if the reduction in viral load (reduction in blood HCV-RNA level) is significant three days after the start of the therapy. Accordingly, the reduction in viral load three days after the start of interferon therapy can be used as a leading index for the determination of the response rate to the interferon therapy. The reduction in viral load is preferably not less than 2.0 as the difference between the common logarithm value of the blood HCV-RNA level before the start of interferon therapy and the common logarithm value of the blood HCV-RNA level three days after the start of interferon therapy.
On the patients having hepatitis C complicated with hypertriglyceridemia, the interferon therapy was then conducted along with the oral administration of 1800 to 2700 mg/day of EPA-E.
As a result, the reduction in viral load was 2.375 on average, that is to say, EPA-E improved the effectiveness of the interferon therapy in the patients having hepatitis C complicated with hypertriglyceridemia. […]

hepatitis C virus (HCV) [6] = test: EPA-E in interferon non-responders having hepatitis C complicated with hepatic steatosis (Example 1); assay type: in vivo, human; settings: 2700 mg/day oral, third and sixth month, no interferon
Experimental: To the patients from whom interferon was withdrawn for about one month after they were determined to be unresponsive to interferon therapy, 2700 mg/day of EPA-E is orally administered for three months or longer. During the testing period, it is forbidden to administer any new drug considered to effect change in hepatic function. Also forbidden is administration of interferon. If the alanine aminotransferase (ALT) activity and/or the HCV-RNA level is quantified (the latter by a COBAS AMPLICOR MONITOR assay) before EPA-E administration, as well as on the third month and the sixth month of EPA-E administration, and the values as obtained are compared with those before administration, it is confirmed that the ALT activity and/or the HCV-RNA level is reduced by not less than 10%.
Instead of the ALT activity, improvement in liver tissue finding, reduction in lipid droplet, or reduction in proportion of 18:1 fatty acids (oleic acid in particular) among liver triglyceride fractions may be confirmed.

hepatitis C virus (HCV) [7] = test: Response rate to repeated interferon therapy after EPA-E in non-responders or relapsers (Example 2-1); assay type: in vivo, human; settings: 1800 to 2700 mg/day oral for three months before repeated interferon therapy; six months after completion of interferon therapy
Experimental: Employing those hepatitis C patients as targets who were determined as non-responders or relapsers after interferon therapy, it is confirmed that the response rate to the interferon therapy is improved in re-treatment cases by the administration of EPA-E.
The patients to be tested are divided into two groups, namely, EPA-E administered group and EPA-E non-administered group. To the EPA-E administered group, 1800 to 2700 mg/day of EPA-E is orally administered for three months after the patients were determined as non-responders or relapsers with respect to the interferon therapy. To the EPA-E non-administered group, none of EPA and derivatives thereof is administered during the testing period. Subsequently, the interferon therapy is conducted again on both groups. The dose, dosage interval, dosage period, and the like of interferon are specified as appropriate to the condition of a patient, side effects of the interferon, and so forth. The ratio at which the patients became negative for the HCV-RNA level is calculated six months after the completion of interferon therapy.
It is confirmed that the ratio as calculated is higher in the EPA-E administered group than the EPA-E non-administered group.

[8] = tested on: blood HCV-RNA level (hepatitis C virus); test: Time to negativity for the blood HCV-RNA level on repeated interferon therapy after EPA-E (Example 2-3); assay type: in vivo, human; settings: 1800 to 2700 mg/day oral at least two weeks before repeated interferon therapy
Experimental: Employing those hepatitis C patients as targets who were determined as non-responders or relapsers after interferon therapy, it is confirmed that the time at which the patients become negative for the blood HCV-RNA level is allowed to be earlier by the administration of EPA-E.
The patients to be tested are divided into two groups, EPA-E administered group and EPA-E non-administered group. To the EPA-E administered group, 1800 to 2700 mg/day of EPA-E is orally administered for at least two weeks after the patients were determined as non-responders or relapsers with respect to the interferon therapy. To the EPA-E non-administered group, none of EPA and derivatives thereof is administered during the testing period. Subsequently, the interferon therapy is conducted again on both groups. The dose, dosage interval, dosage period, and the like of interferon are specified as appropriate to the condition of a patient, side effects of the interferon, and so forth. The blood HCV-RNA level is measured in course of the administration of interferon. Data on the time after the start of interferon administration at which the patients became negative for the blood HCV-RNA level are collected to comparison between the two groups.
For instance, the ratio of the patients becoming negative for the blood HCV-RNA level within 12 weeks after the start of interferon administration is increased.

[9] = healthy male adult, cited from earlier work
hepatitis C virus (HCV) [10] = settings: hepatitis C patients; cited from earlier work
[11] = in one week of continuous oral administration

CC/C=C\C/C=C\C/C=C\C/C=C\C/C=C\C/C=C\CCC(=O)O [DHA, docosahexaenoic acid]
HCV replication-inhibiting effect independent of cytotoxicity [1]: only linoleic acid had the HCV replication-inhibiting effect

CC/C=C\C/C=C\C/C=C\C/C=C\C/C=C\CCCC(=O)O [EPA, icosapentaenoic acid]
effect of interferon and EPA in combination versus interferon alone on hepatitis C complicated with hepatic steatosis (hepatitis C virus (HCV) [2]): greater effect | HCV replication [3]: inhibited HCV replication | anaemia during combination therapy with interferon and ribavirin [4]: can prevent anaemia | HCV replication-inhibiting effect independent of cytotoxicity [1]: only linoleic acid had the HCV replication-inhibiting effect

CC/C=C\C/C=C\C/C=C\C/C=C\C/C=C\CCCC(=O)OCC [EPA-E, ethyl icosapentate]
reduction in viral load (difference between common logarithm values of the blood HCV-RNA level), on average [5]: 2.375 | reduction of HCV-RNA level compared with before administration (hepatitis C virus (HCV) [6]; COBAS AMPLICOR MONITOR assay): not less than 10% | reduction of ALT activity compared with before administration (hepatitis C virus (HCV) [6]): not less than 10% | ratio at which patients became negative for the HCV-RNA level, versus EPA-E non-administered group (hepatitis C virus (HCV) [7]): higher | effect on hepatitis C complicated with hepatic steatosis versus not complicated with hepatic steatosis (hepatitis C virus (HCV) [2]; ALT, HCV-RNA, hepatohistological test): greater | ratio of patients becoming negative for the blood HCV-RNA level within 12 weeks after start of interferon administration [8]: increased | time at which patients become negative for the blood HCV-RNA level, versus EPA-E non-administered group [8]: shows a tendency to be earlier | time at which the plasma EPA level reaches a plateau ([9]; continuous oral administration): one week | plasma EPA/AA (arachidonic acid) ratio [9, 11]: higher than 1.0 | plasma EPA/AA relative to that before administration [9, 11]: about two times

CCCCC/C=C\C/C=C\C/C=C\C/C=C\CCCC(=O)O [arachidonic acid]
HCV replication [3]: inhibited HCV replication | HCV replication-inhibiting effect independent of cytotoxicity [1]: only linoleic acid had the HCV replication-inhibiting effect

CCCCC/C=C\C/C=C\CCCCCCCC(=O)O [linoleic acid]
HCV replication-inhibiting effect independent of cytotoxicity [1]: only linoleic acid had the HCV replication-inhibiting effect

IFN-α
HCV elimination rate (hepatitis C virus (HCV) [10]): about 30%
